Test results published in patent US9421197B2, “Methods of generating hyper INOS expressing cells and uses thereof” (CASE WESTERN RESERVE UNIVERSITY, priority 2010, dated 2016).

How the values were obtained:
excisional wounds = test: inflammatory wound model: wound healing curves; format: in vivo, mice; details: for day by which wounds healed: IL6−/− mice, inflammatory wound treatment, agent given i.p.
peritoneal macrophages = test: thioglycollate-induced peritonitis, peritoneal macrophages analyzed ex vivo by RT-PCR; details: IL6−/− mice treated in vivo
Description: For RT-PCR analysis, RNA was isolated using Trizol (Invitrogen) following the manufacturer's instructions, and was reverse-transcribed and quantified using Applied Biosystems TaqMan® RNA-to-CT™ 1-Step Kit, TaqMan® Gene Expression Assays for 18 s RNA, iNOS II, […], and IL-1β, and Step-One™ System. Cycle time, temperature, and number were based on Applied Biosystems recommendations.
Mice were injected i.p. with 2 ml of thioglycollate and sacrificed 24 hours later mice by cervical dislocation. Lavage was performed by infusing 5 ml of […] DPBS into the peritoneal cavity. The fluid sample is recovered by aspirating the liquid with a syringe. 80%±21% of instilled fluid volume is recovered. Macrophages were harvested following centrifugation of the […].

[1] = therapeutic doses; FDA alert May 21, 2007; cited from earlier work
iNOS and TNF-α mRNA = test: inflammatory wound model: iNOS and TNF-α expression in skin; format: in vivo; details: IL6−/− mice, combined wounding, UVB and topical rosiglitazone, 24 hours
Description: Cycle time, temperature, and number were based on Applied Biosystems recommendations. Skin was wounded with some modifications. Mice were treated with 3-6 mm excisional wounds, one midline and two on each side of the midline. […] Wounds were measured and treated with topical rosiglitazone solution daily until healed (loss of serum crust and reepithelialization). Lung Treatment and Preparation […] All other reagents were purchased from sigma.

NF-κB p65 and STAT3 = test: Western blot of nuclear NF-κB p65 and STAT3 in thioglycollate-elicited macrophages; format: cell-based, mice; details: reconstitution of IL6−/− macrophages
Description: Mice were injected i.p. with 2 ml of thioglycollate and sacrificed 24 hours later mice by cervical dislocation. Lavage was performed by infusing 5 ml of 40 C DPBS into the peritoneal cavity. The fluid sample is recovered by aspirating the liquid with a syringe. 80%±21% of instilled fluid volume is recovered. Macrophages were harvested following centrifugation of the BAL fluid.
NE-PER kit (Thermo Scientific) was used to extract nuclear and cytoplasmic protein from peritoneal macrophages. Protein samples were prepared under reduced conditions and western blot analysis was performed using a standard protocol (Invitrogen). Stat3 (79D7) Rabbit mAb, NF— xB p65, β-actin (13E5) Rabbit mAb (Cell Signaling Technology, Danvers, Mass.) were used for western blot evaluation. Densiometry analyzed by Biorad VersaDoc imaging system.

Compound: CC(=N)NCc1cccc(CN)c1 [1400 W]
- day by which wounds healed (excisional wounds): 14 days

Compound: O=C(Nc1ccccc1)c1cc([N+](=O)[O-])ccc1Cl [GW9662]
- iNOS expression (peritoneal macrophages): No significant increase

Compound: CN(CCOc1ccc(CC2SC(=O)NC2=O)cc1)c1ccccn1 (centres unmarked) [rosiglitazone]
- risk of heart attack [1]: substantially increased risk
- increase in TNF-α mRNA expression (iNOS and TNF-α mRNA): 13 fold
- increase in iNOS mRNA expression (iNOS and TNF-α mRNA): 20 fold
- delay of wound closure (excisional wounds; IL6−/− mice compared to wildtype, inflammatory wound protocol): 8 days

Compound: rIL-6: recombinant IL-6 (R&D Systems)
- STAT3 and NF-kB levels (NF-κB p65 and STAT3): restores STAT3 and NF-kB levels similar to wildtype conditions
- day by which wounds healed (excisional wounds): 11 days
